# Measured values published in patent US11202792B2, “CD99 inhibitors and their uses” (GEORGETOWN UNIVERSITY, priority 2016, dated 2021).
# Legend:
# [1] = test system: U-2 OS cells; test: Secondary functional screen, negative control cell line; assay type: cell-based; settings: Homo sapiens, U2OS; 10 μmol/L, 48 h, WST-1; read-out: growth inhibition of OS cell lines (U-2 OS)
# [2] = test system: MSK1/2 phosphorylation in STA-ET-7.2 and TC-32 cells; test: MSK1/2 phosphorylation by immunoblot, ES cells; assay type: cell-based, human; settings: 0.6 μmol/L (STA-ET-7.2) or 0.5 μmol/L (TC-32), 24 h, vs vehicle
# Description: (§1) In a parallel set of experiment, cells were also treated with 15 μg/mL of either mouse control IgM or CD99 blocking antibody for the same duration. Total cell lysates were analyzed by immunoblotting for MSK1/2 phosphorylation. […] In a parallel set of experiment, cells were transfected with either siRNA control or siRNA targeting the coding region of CD99 protein. Total cell lysates were analyzed after 48 h by immunoblotting for MSK1/2 phosphorylation after cell transfection. […] In FIG. 23D, SCID/beige mice were implanted with TC-71 xenografts in their tibia. […] Tumor lysates were analyzed by immunoblotting for MSK1/2 phosphorylation.
# (§2) Quantitative analysis of protein bands was performed using ImageJ 1.48v software. Immunoblotting was performed as described above.
# [3] = test system: MSK1/2 phosphorylation in MG63.3 and U-2 OS cells; test: MSK1/2 phosphorylation by immunoblot, OS cells; assay type: cell-based, human; settings: 1.0 μmol/L, 24 h
# Description: as §1, §2
# [4] = molecular target: T1, CD99 protein (Homo sapiens, UniProt P14209); test: Cellular thermal shift assay (CETSA) in TC-71 cell lysates; assay type: binding; settings: 3.0 μmol/L, 30 min, high temperatures vs control lysates
# T1 construct: The thermostability of endogenous CD99 protein increased in cell lysates from TC-71 cells; endogenous in cells; host or cells: TC-71 total cell lysate
# T1 sequence (P14209 23-185): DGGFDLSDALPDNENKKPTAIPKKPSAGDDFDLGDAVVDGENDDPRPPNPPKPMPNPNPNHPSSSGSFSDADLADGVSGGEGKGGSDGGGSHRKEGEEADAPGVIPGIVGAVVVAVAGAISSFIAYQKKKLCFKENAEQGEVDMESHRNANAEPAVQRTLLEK
# Description: The CETSA method was used according to Martinez Molina et al. (“Monitoring drug target engagement in cells and tissues using the cellular thermal shift assay,” Science 341: 84-87 (2013)) and Jafari et al. (“The cellular thermal shift assay for evaluating drug target interactions in cells,” Nat Protoc 9:2100-22 (2014)). […] The cell lysates in 60 μL volumes were individually heated in thin wall PCR tubes to the indicated temperatures for 3 min, by using Veriti 96-well Thermal Cycler (Applied Biosystems (Foster City, Calif.)). Samples were then centrifuged at 16,000×g for 30 min at 4° C. to remove insoluble proteins, and 40 ul of the resulting supernatants were transferred into new eppendorf tubes for subsequent SDS-PAGE and immunoblotting analysis.
# [5] = test system: A4573 xenografts; test: Orthotopic A4573 xenograft, i.p. administration; assay type: in vivo, SCID/beige mice
# Description: (§3) All tumor tissues were fixed in 10% neutral buffered formalin for 24 h, dehydrated through a graded series of alcohols and cleared in xylenes prior to embedding in paraffin. Embedded tissues were cut into 5 μm thick sections and stained with hematoxylin and eosin (H&E). Immunohistochemical staining was performed for CD99 and caspase 3 (cleaved). Five micron sections from formalin fixed paraffin embedded tissues were de-paraffinized with xylenes and rehydrated through a graded alcohol series. Heat induced epitope retrieval was performed by immersing the tissue sections at 98° C. for 60 min in 10 mmol/L citrate buffer (pH 6.0). Immunohistochemical staining was performed using a horseradish peroxidase labeled polymer from Agilent (Santa Clara, Calif.) (#K4001, #K4003) according to manufacturer's instructions. Briefly, slides were treated with 3% hydrogen peroxide and 10% normal goat serum for 10 min each, and exposed to primary antibodies for CD99 (Abcam, #ab8855) at a 1:100 dilution and for caspase 3 (cleaved) (Biocare (Pacheco, Calif.), #CP229A) at a 1:90 dilution in Da Vinci Green for one hour and stained on an DAKO Autostainer. Slides were exposed to the appropriate HRP labeled polymer for 30 min and DAB chromogen (Dako (Santa Clara, Calif.) for 5 min. Slides were counterstained with Hematoxylin (Fisher, Harris Modified Hematoxylin), blued in 1% ammonium hydroxide, dehydrated, and mounted with Acrymount. Consecutive sections with the primary antibody omitted were used as negative controls. The sections were evaluated in a blinded fashion by a board certified pathologist.
# The antitumor activity of drugs through intraperitoneal (i.p.) administration given once daily was determined. […] The in vivo potencies of drug treatments were evaluated by event-free survival curves, where tumors that reached 1.0 cm^3 in size considered an event.
# [6] = test system: TC-71 xenografts; test: Orthotopic TC-71 xenograft, oral administration; assay type: in vivo, SCID/beige mice
# Description: as §3
# In this study, reduction in number of mitotic figures and increase in caspase-3 staining was less prominent. […] Therefore, when the animals were euthanized for tumor regrowth they were not receiving any clofarabine. Their last dose of clofarabine was more than two week before the tissue harvest.
# [7] = test system: ES cell lines RDES and TC-71; test: Secondary functional screen, growth inhibition in ES cell lines; assay type: cell-based; settings: Homo sapiens; 10 μmol/L, 48 h, WST-1
# [8] = test system: TC-32 ES cells transfected with DCK siRNA; test: Response to clofarabine after DCK siRNA, ES cells; assay type: cell-based, human; settings: TC-32, DCK siRNA
# Description: The expression of DCK and CD99 was suppressed transiently by using a validated small interfering RNA (siRNA) duplexes targeting coding region (Invitrogen (Carlsbad, Calif.); #s186 and #s8768, respectively). Silencer™ Select Negative Control No. 2 siRNA (Invitrogen) was used as the control. Cells were transfected with DCK or CD99 or control siRNA oligonucleotides using X-tremeGene siRNA transfection reagent (Roche Diagnostics (Basel, Switzerland)) according to the manufacturer's protocol. The cells were analyzed for DCK and CD99 knockdown after 45 or 72 h by immunoblotting.
# [9] = test system: A4573 ES cells; test: Cell viability IC50 (WST-1), A4573; assay type: cell-based, human; settings: Homo sapiens, WST-1, 48 h (FIG. 10B)
# [10] = test system: U-2 OS cells; test: Cell cycle analysis by flow cytometry, OS cells; assay type: cell-based, human; settings: 48 h, U-2 OS compared with ES cells
# Description: For the evaluation of cell cycle, cell cultures were incubated with 10 μmol/L bromodeoxyuridine (BrdU) (Sigma-Aldrich) for 1 h in a CO2 atmosphere at 37° C. Harvested cells were fixed in ice-cold 70% ethanol for 30 min. After DNA denaturation with 2 N HCl for 30 min at room temperature, cells were washed with 0.1 M Na2B4O7, pH 8.5 and processed for indirect immunofluorescence staining, using α-BrdU (BD Biosciences (San Jose, Calif.)) diluted 1:4 as a primary MAb and α-mouse FITC (1:100—Thermo Scientific (Waltham, Mass.)) as a secondary antibody. After treatment with 0.5 mg/ml RNase and staining with 20 μg/ml propidium iodide, cells were and analyzed by flow cytometry (FACSCalibur; Becton Dickinson (Franklin Lakes, N.J.)) for cell cycle evaluation and for assessing cell death by DNA content analysis.
SMILES,inhibition at 10 µM [1],phosphorylation levels of MSK1/2 [2],phosphorylation levels of MSK1/2 [3],thermostability of endogenous CD99 protein [4],"mitotic figures per field ([5]; H&E, 200-fold magnification)","apoptotic cells ([5]; H&E, confirmed by caspase-3 immunohistochemistry)","event-free survival ([5]; i.p. once daily, clofarabine 30 mg/kg, vs vehicle)","tumor growth ([5]; i.p., clofarabine 30 mg/kg)",mitotic figures ([6]; TC-71 xenograft harvested after 2 days of 30 mg/kg oral),"apoptotic cells ([6]; TC-71 xenograft harvested after 2 days of 30 mg/kg oral, H&E, caspase-3)","phosphorylation levels of MSK1/2 in tumors ([6]; TC-71 xenograft, oral 30 mg/kg for two days, three out of four mice)","tumor growth ([6]; TC-71 xenograft, 30 mg/kg orally once daily 14 days, compared to i.p. administration)","median event-free survival ([6]; TC-71 xenograft, 30 mg/kg orally once daily for 14 days, vehicle 7 days, p<0.0001)",inhibition at 10 µM [7],response after inhibiting DCK protein expression [8],IC50 [9],cell cycle effect [10]
Nc1nc(Cl)nc2c1ncn2[C@@H]1O[C@H](CO)[C@@H](O)[C@@H]1F [clofarabine],≤ 10%,significantly elevated,Neither MG63.3 nor U2-OS cells showed a response,increased,≤ 3,significant increase,significantly improved,significant inhibition of tumor growth,complete loss,significant increase,significant increase,more significant inhibition of tumor growth,33 days,≥ 70%,shift to the right of the IC50 curve,310 nM,–
Nc1nc(Cl)nc2c1ncn2[C@H]1C[C@H](O)[C@@H](CO)O1 [cladribine],–,–,–,–,–,–,–,–,–,–,–,–,–,–,–,–,more pronounced
